“And” between values parts separate entries of the source, which are not always exact repeats. Equal entries are not always repeated. Inconclusive results and toxic doses are left out.
Test system: P388 leukemia ip, CD2F1 mice, survival T/C
Assay: NCI In Vivo Anticancer Drug Screen. Data for tumor model P388 Leukemia (intraperitoneal) in CD2F1 (CDF1) mice
Details: endpoint: median survival time, higher = longer survival
In short: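 Mice carrying the transplanted tumor received test compound or vehicle. Survival was recorded in each group, and the value is the treated-group measurement divided by that of the vehicle-treated control group.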

[1] = dose: 50.0 mg/kg/injection, schedule: Q01DX005 (ip), vehicle: Klucel (hydroxypropylcellulose) (HPC)
[2] = dose: 100.0 mg/kg/injection, schedule: Q01DX005 (ip), vehicle: Klucel (hydroxypropylcellulose) (HPC)
[3] = dose: 200.0 mg/kg/injection, schedule: Q01DX005 (ip), vehicle: Klucel (hydroxypropylcellulose) (HPC)
[4] = dose: 400.0 mg/kg/injection, schedule: Q01DX005 (ip), vehicle: Klucel (hydroxypropylcellulose) (HPC)

With `O=c1ssc(=Nc2ccccc2)n1-c1ccccc1` the T/C (dose: 50.0 mg/kg/injection, schedule: Q01DX009 (ip), vehicle: Klucel (hydroxypropylcellulose) (HPC)) was 109 % of control, the T/C (dose: 100.0 mg/kg/injection, schedule: Q01DX009 (ip), vehicle: Klucel (hydroxypropylcellulose) (HPC)) was 116 % of control and 118 % of control and the T/C (dose: 200.0 mg/kg/injection, schedule: Q01DX009 (ip), vehicle: Klucel (hydroxypropylcellulose) (HPC)) was 113 % of control and 117 % of control. For the same molecule, the T/C (dose: 400.0 mg/kg/injection, schedule: Q01DX009 (ip), vehicle: Klucel (hydroxypropylcellulose) (HPC)) was 124 % of control.
`Cc1ccc(S(=O)(=O)NCC(Cl)C#N)cc1` (stereo not given) was tested, and the T/C [1] was 105 % of control, the T/C [2] was 106 % of control and the T/C [3] was 103 % of control. The T/C [4] was 102 % of control.
In the case of `COCc1ccccc1-n1nccc1S(C)=O` (stereo not given), the T/C (dose: 60.0 mg/kg/injection, schedule: Q01DX005 (ip), vehicle: saline with Tween-80) is reported as 106 % of control, the T/C (dose: 120.0 mg/kg/injection, schedule: Q01DX005 (ip), vehicle: saline with Tween-80) is reported as 98 % of control and the T/C (dose: 240.0 mg/kg/injection, schedule: Q01DX005 (ip), vehicle: saline with Tween-80) is reported as 106 % of control.
For `CCOc1ccc(C(C)c2cc3c(cc2OCC)OCO3)cc1` (stereo not given), the T/C (dose: 25.0 mg/kg/injection, schedule: Q01DX005 (ip), vehicle: saline with Tween-80) was 120 % of control and the T/C (dose: 200.0 mg/kg/injection, schedule: Q01DX005 (ip), vehicle: saline with Tween-80) was 157 % of control.
`CN(C)C1=NC(NCCc2ccccc2)(N(C)C)OC(N(C)C)=N1` (stereo not given) was tested, and the T/C (dose: 25.0 mg/kg/injection, schedule: Q01DX005 (ip), vehicle: saline) was 100 % of control, the T/C (dose: 50.0 mg/kg/injection, schedule: Q01DX005 (ip), vehicle: saline) was 107 % of control and the T/C (dose: 100.0 mg/kg/injection, schedule: Q01DX005 (ip), vehicle: saline) was 100 % of control.
For `O=C1C=C(OCc2ccccc2)C(=O)C(OCc2ccccc2)=C1`, the T/C [1] was 94 % of control, the T/C [2] was 100 % of control and the T/C [3] was 104 % of control.
In the case of `CCCCCCC(/C=C/c1ccc(N(C)C)cc1)=N\O`, the T/C (dose: 100.0 mg/kg/injection, schedule: Q01DX009 (ip), vehicle: saline with Tween-80) is reported as 93 % of control and the T/C (dose: 200.0 mg/kg/injection, schedule: Q01DX009 (ip), vehicle: saline with Tween-80) is reported as 93 % of control.
In the case of `O=C(O)C1CCCN1C(=O)OCc1ccccc1` (stereo not given), the T/C [2] is reported as 87 % of control, the T/C [3] is reported as 89 % of control and the T/C [4] is reported as 91 % of control.
For `O=S(=O)(Nc1ncccn1)c1ccc(N=Cc2c3ccccc3nc3ccccc23)cc1`, the T/C (dose: 12.5 mg/kg/injection, schedule: Q04DX002 (ip), vehicle: Klucel (hydroxypropylcellulose) (HPC)) was 96 % of control, the T/C (dose: 25.0 mg/kg/injection, schedule: Q04DX002 (ip), vehicle: Klucel (hydroxypropylcellulose) (HPC)) was 99 % of control and the T/C (dose: 50.0 mg/kg/injection, schedule: Q04DX002 (ip), vehicle: Klucel (hydroxypropylcellulose) (HPC)) was 93 % of control. For the same molecule, the T/C (dose: 100.0 mg/kg/injection, schedule: Q04DX002 (ip), vehicle: Klucel (hydroxypropylcellulose) (HPC)) was 99 % of control, the T/C (dose: 200.0 mg/kg/injection, schedule: Q04DX002 (ip), vehicle: Klucel (hydroxypropylcellulose) (HPC)) was 91 % of control and the T/C (dose: 400.0 mg/kg/injection, schedule: Q04DX002 (ip), vehicle: Klucel (hydroxypropylcellulose) (HPC)) was 96 % of control.
With `Cc1c(Cl)c2ccc(N(C)C)cc2[nH]c1=O` the T/C (dose: 50.0 mg/kg/injection, schedule: Q01DX009 (ip), vehicle: acid diluted with saline) was 95 % of control, the T/C (dose: 100.0 mg/kg/injection, schedule: Q01DX009 (ip), vehicle: acid diluted with saline) was 93 % of control and the T/C (dose: 200.0 mg/kg/injection, schedule: Q01DX009 (ip), vehicle: acid diluted with saline) was 89 % of control.
For `O=NN(CCOCCCl)C(=O)NC1CCCCC1`, the T/C (dose: 6.25 mg/kg/injection, schedule: Q01DX009 (ip), vehicle: water) was 100 % of control, the T/C (dose: 12.5 mg/kg/injection, schedule: Q01DX009 (ip), vehicle: water) was 100 % of control and the T/C (dose: 25.0 mg/kg/injection, schedule: Q01DX009 (ip), vehicle: water) was 107 % of control. The T/C (dose: 200.0 mg/kg/injection, schedule: Q01DX009 (ip), vehicle: water) was 152 % of control.
For `CN(C)CC(CN(C)C)C(=O)c1ccc(Oc2ccc(Cl)cc2)cc1`, the T/C (dose: 1.88 mg/kg/injection, schedule: Q01DX005 (ip), vehicle: saline) was 110 % of control, the T/C (dose: 3.75 mg/kg/injection, schedule: Q01DX005 (ip), vehicle: saline) was 116 % of control and the T/C (dose: 7.5 mg/kg/injection, schedule: Q01DX005 (ip), vehicle: saline) was 107 % of control and 112 % of control.

Reference: PubChem BioAssay AID330 (DTP/NCI, 2004)
